Measurements taken from US20230286973A1, “PROTEIN SECRETION INHIBITORS” (KEZAR LIFE SCIENCES, priority 2020, published 2023).

Experiments:
[1] = tested on: HER3-ss+4aa/Gaussia Luciferase; experiment: Dox-Induced Her3-ss-Gluc Assay; type: cell-based; details: 24 hr Dox induction; 293FRT/TO cells; mean; read-out: 24 hr Dox Inducible Her3(ss + 4)Gluc 293FRT/TO: Mean IC50
Method in brief: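 Stable Flp-In 293 T-REx cells carried a doxycycline-inducible HER3 signal sequence (+4 aa) fused to Gaussia luciferase. Cells were plated the day before the assay. Compound dilutions in DMSO/media containing doxycycline were then added, and plates were incubated at 37 °C, 5% CO2.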

[2] = tested on: PD1-ss+10aa/Gaussia Luciferase; experiment: Dox-Induced PD1-ss-Gluc Assay; type: cell-based; details: 24 hr Dox induction; 293FRT/TO cells; mean; read-out: 24 hr Dox Inducible PD1ssGluc 293FRT/TO: Mean IC50
Method in brief: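 The cell line was made by transfecting Flp-In 293 T-REx cells with a PD1 signal sequence+10aa–Gaussia luciferase fusion under T-REx control and selecting with hygromycin and blasticidin. Cells were seeded, and next day compound plus doxycycline was added at 37 °C, 5% CO2.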

[3] = Liver Microsome Stability Assay (monkey); details: monkey liver microsomes, with NADPH, 1.0 uM compound
Experimental: (§1) Stability of a compound was assessed in the presence of liver microsomes from various sources—mouse, rat, monkey and human liver microsomes. 1.0 uM compound, 0.4% DMSO in 0.1 M Potassium Phosphate with 1.0 mg/mL liver microsomes, were incubated at 37° C. with or without 1 mM NADPH. The samples were quenched at 0, and 30 minutes.

[4] = Liver Microsome Stability Assay (rat); details: rat liver microsomes, with NADPH, 1.0 uM compound
Experimental: as §1

[5] = tested on: multiple myeloma cell line U266B1; experiment: U266 Cell Viability Assay; type: cell-based, human; details: Homo sapiens, U-266, 48 h, U266B1 cells, Celltiter-Glo
Method in brief: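 U266B1 multiple myeloma cells in RPMI 1640/10% FBS were treated with compound dilutions for 48 h at 37 °C, 5% CO2. Viability was measured by CellTiter-Glo luminescence; compounds drawn without stereochemistry were tested as stereoisomer mixtures.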

[6] = Liver Microsome Stability Assay (mouse); details: mouse liver microsomes, with NADPH, 1.0 uM compound
Experimental: as §1

[7] = tested on: IL-2-FL/Gaussia Luciferase; experiment: Dox Induced IL2-FL-Gluc Assay; type: cell-based; details: for IC50: 24 hr Dox induction, 293FRT/TO cells, mean, read-out: 24 hr Dox Inducible IL2FLGluc 293FRT/TO: Mean IC50; for 24 hr Dox Inducible IL2FLGluc 293FRT/TO: IL2/PD1: ratio of IL2FLGluc IC50 to PD1ssGluc IC50, '<=>' given where both are I.A.
Method in brief: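 Stable Flp-In 293 T-REx cells carrying doxycycline-inducible full-length IL-2 (aa 1-153) fused to Gaussia luciferase, plated the day before assay. Compound dilutions added in medium containing doxycycline, incubated at 37 °C, 5% CO2. Undefined stereocentres mean data refer to stereoisomer mixtures.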

[8] = tested on: multiple myeloma cell line NCI-H929; experiment: H929 Cell Viability Assay; type: cell-based, human; details: Homo sapiens, NCI-H929, 48 h, NCI-H929 cells, Celltiter-Glo
Method in brief: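 NCI-H929 cells in RPMI 1640 with 10% FBS were treated with compound dilutions for 48 h at 37° C, 5% CO2. Viability was read by CellTiter-Glo luminescence. Undefined stereocentres denote stereoisomer mixtures.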

[9] = tested on: TNFα-FL/Gaussia Luciferase; experiment: Dox Induced TNFα-FL-Gluc Assay; type: cell-based; details: for IC50: 24 hr Dox induction, 293FRT/TO cells, mean, read-out: 24 hr Dox Inducible TNFaFLGluc 293FRT/TO: Mean IC50; for 24 hr Dox Inducible TNFaFLGluc 293FRT/TO: TNF/PD1: ratio of TNFaFLGluc IC50 to PD1ssGluc IC50, '<=>' given where both are I.A.
Method in brief: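 Flp-In 293 T-REx cells stably carrying doxycycline-inducible full-length TNFα (aa 1-233) fused to Gaussia luciferase. Plated the day before, then treated with compound dilutions in doxycycline-containing medium at 37° C, 5% CO2.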

[10] = Liver Microsome Stability Assay (human); details: human liver microsomes, with NADPH, 1.0 uM compound
Experimental: as §1

SMILES	IC50 [1] [µM]	IC50 [2] [µM]	Liver Microsome Stability (Multiple Species): Monkey - % Remaining after 30 min w/NADPH [3] [%]	Liver Microsome Stability (Multiple Species): Rat - % Remaining after 30 min w/NADPH [4] [%]	EC50 [5] [µM]	Liver Microsome Stability (Multiple Species): Mouse - % Remaining after 30 min w/NADPH [6] [%]	IC50 [7] [µM]	24 hr Dox Inducible IL2FLGluc 293FRT/TO: IL2/PD1 [7]	EC50 [8] [µM]	IC50 [9] [µM]	24 hr Dox Inducible TNFaFLGluc 293FRT/TO: TNF/PD1 [9]	Liver Microsome Stability (Multiple Species): Human - % Remaining after 30 min w/NADPH [10] [%]
Cc1c(/C=C/c2csc(NC(=O)c3cccn3Cc3ccnc(F)c3)n2)ncn1C(C)C [Compound B116, (E)-1-((2-fluoropyridin-4-yl)methyl)-N-(4-(2-(1-isopropyl-5-methyl-1H-imidazol-4-yl)vinyl)thiazol-2-yl)-1H-pyrrole-2-carboxamide]	3.69	0.0105	0.16	8.66	9.48	11.3	5.27	500	8.45	18.8	1780	0.16
CCn1cnc(/C=C/c2csc(NC(=O)c3cccn3Cc3ccnc(F)c3)n2)c1C [Compound B117, (E)-N-(4-(2-(1-ethyl-5-methyl-1H-imidazol-4-yl)vinyl)thiazol-2-yl)-1-((2-fluoropyridin-4-yl)methyl)-1H-pyrrole-2-carboxamide]	> 25	0.0318	0.22	4.95	21.2	15.8	> 25	>790	16.9	23.6	743	0.29
Cc1c(/C=C/c2csc(NC(=O)c3cccn3Cc3ccnc(F)c3)n2)ncn1C(C)CO (stereo not drawn) [Compound B118, (E)-1-((2-fluoropyridin-4-yl)methyl)-N-(4-(2-(1-(1-hydroxypropan-2-yl)-5-methyl-1H-imidazol-4-yl)vinyl)thiazol-2-yl)-1H-pyrrole-2-carboxamide]	> 25	0.247	0.21	14.9	> 25	40.4	> 25	>100	> 25	> 25	>101	0.37
CCOC(=O)C(C)n1cnc(/C=C/c2csc(NC(=O)c3cccn3Cc3ccnc(F)c3)n2)c1C (stereo not drawn) [Compound B119, ethyl (E)-2-(4-(2-(2-(1-((2-fluoropyridin-4-yl)methyl)-1H-pyrrole-2-carboxamido)thiazol-4-yl)vinyl)-5-methyl-1H-imidazol-1-yl)propanoate]	8.9	0.0511	0.1	0.7	15.6	2.37	10.1	200	13.1	21.3	418	0.15
COC(=O)Cn1cnc(/C=C/c2csc(NC(=O)c3cccn3Cc3ccnc(F)c3)n2)c1C [Compound B120, methyl (E)-2-(4-(2-(2-(1-((2-fluoropyridin-4-yl)methyl)-1H-pyrrole-2-carboxamido)thiazol-4-yl)vinyl)-5-methyl-1H-imidazol-1-yl)acetate]	> 25	2.69	0.15	2.69	> 25	6.6	> 25	>9.3	> 25	> 25	>9.29	0.24
N#CCCCCn1cccc1C(=O)Nc1nc([C@H]2CCCN2c2ccccc2)cs1 [Compound C1, (R)-1-(4-cyanobutyl)-N-(4-(1-phenylpyrrolidin-2-yl)thiazol-2-yl)-1H-pyrrole-2-carboxamide]	1.33	0.455	0.35	7.64	> 25	23.2	1.26	2.8	24.1	10	22.1	29.3
N#CCCCn1cccc1C(=O)Nc1nc([C@H]2CCCN2c2ccccc2)cs1 [Compound C2, (R)-1-(3-cyanopropyl)-N-(4-(1-phenylpyrrolidin-2-yl)thiazol-2-yl)-1H-pyrrole-2-carboxamide]	1.38	0.483	0.23	17.6	> 25	18	1.52	3.1	> 25	9.74	20.2	33.9
O=C(Nc1nc([C@H]2CCCN2c2ccccc2)cs1)c1cccn1CCC1CCOC1 (stereo partly drawn) [Compound C3, N-(4-((R)-1-phenylpyrrolidin-2-yl)thiazol-2-yl)-1-(2-(tetrahydrofuran-3-yl)ethyl)-1H-pyrrole-2-carboxamide]	2.27	1.11	8.3	4.35	> 25	9.29	3.04	2.7	16.3	15.1	13.5	16
O=C(Nc1nc([C@H]2CCCN2c2ccccc2)cs1)c1cccn1CCCCc1nnn[nH]1 [Compound C4, (R)-1-(4-(1H-tetrazol-5-yl)butyl)-N-(4-(1-phenylpyrrolidin-2-yl)thiazol-2-yl)-1H-pyrrole-2-carboxamide]	1.54	0.782	70.3	62.1	> 25	49.1	1.94	2.5	> 25	16.5	21.1	96.7
O=C(Nc1nc([C@H]2CCCN2c2ccccc2)cs1)c1cccn1Cc1ccccc1 [Compound C5, (R)-1-benzyl-N-(4-(1-phenylpyrrolidin-2-yl)thiazol-2-yl)-1H-pyrrole-2-carboxamide]	2.42	2.2	63	67.5	> 25	65.6	2.88	1.3	> 25	> 25	>11.4	87.9
